Results taken from patent publication US20240342292A1, “Compounds for the Degradation of EGFR Kinase” (BeiGene Switzerland GmbH, priority 2021, published 2024).

Tests used:
[1] = biological target: T1, L858R/T790M/C797S EGFR (Homo sapiens, UniProt P00533, C797S/L858R/T790M); test: EGFR degradation HTRF assay in H1975-clone #25 (LTC) cells; type: cell-based; details: 16h treatment; for DC50: H1975 # 25-LTC (L858R/T790M/C797S), HTRF; for Dmax: NCI-H1975, H1975 # 25-LTC (L858R/T790M/C797S), maximum percentage of degradation
T1 construct: expressed in transfected cells; host or cells: H1975 clone #25 (lentiviral over-expression, endogenous EGFR knocked out by sgRNA)
How it was run: (§1)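 H1975 clones with endogenous EGFR knocked out and lentivirally expressed mutant EGFR treated 16 h at 37 °C with compounds, 8 doses from 10 uM, 5-fold dilutions, 0.2% DMSO. Lysates read by HTRF (665/620 nm) overnight; DC50 from four-parameter fit.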

[2] = test system: Del19/T790M/C797S EGFR; test: EGFR degradation HTRF assay in H1975-clone #28 (DTC) cells; type: cell-based; details: H1975 # 28 DTC (Del19/T790M/C797S), 16h treatment; for DC50: HTRF; for Dmax (%): maximum percentage of degradation
How it was run: as §1

T1 sequence (P00533 25-1210 T790M/C797S/L858R): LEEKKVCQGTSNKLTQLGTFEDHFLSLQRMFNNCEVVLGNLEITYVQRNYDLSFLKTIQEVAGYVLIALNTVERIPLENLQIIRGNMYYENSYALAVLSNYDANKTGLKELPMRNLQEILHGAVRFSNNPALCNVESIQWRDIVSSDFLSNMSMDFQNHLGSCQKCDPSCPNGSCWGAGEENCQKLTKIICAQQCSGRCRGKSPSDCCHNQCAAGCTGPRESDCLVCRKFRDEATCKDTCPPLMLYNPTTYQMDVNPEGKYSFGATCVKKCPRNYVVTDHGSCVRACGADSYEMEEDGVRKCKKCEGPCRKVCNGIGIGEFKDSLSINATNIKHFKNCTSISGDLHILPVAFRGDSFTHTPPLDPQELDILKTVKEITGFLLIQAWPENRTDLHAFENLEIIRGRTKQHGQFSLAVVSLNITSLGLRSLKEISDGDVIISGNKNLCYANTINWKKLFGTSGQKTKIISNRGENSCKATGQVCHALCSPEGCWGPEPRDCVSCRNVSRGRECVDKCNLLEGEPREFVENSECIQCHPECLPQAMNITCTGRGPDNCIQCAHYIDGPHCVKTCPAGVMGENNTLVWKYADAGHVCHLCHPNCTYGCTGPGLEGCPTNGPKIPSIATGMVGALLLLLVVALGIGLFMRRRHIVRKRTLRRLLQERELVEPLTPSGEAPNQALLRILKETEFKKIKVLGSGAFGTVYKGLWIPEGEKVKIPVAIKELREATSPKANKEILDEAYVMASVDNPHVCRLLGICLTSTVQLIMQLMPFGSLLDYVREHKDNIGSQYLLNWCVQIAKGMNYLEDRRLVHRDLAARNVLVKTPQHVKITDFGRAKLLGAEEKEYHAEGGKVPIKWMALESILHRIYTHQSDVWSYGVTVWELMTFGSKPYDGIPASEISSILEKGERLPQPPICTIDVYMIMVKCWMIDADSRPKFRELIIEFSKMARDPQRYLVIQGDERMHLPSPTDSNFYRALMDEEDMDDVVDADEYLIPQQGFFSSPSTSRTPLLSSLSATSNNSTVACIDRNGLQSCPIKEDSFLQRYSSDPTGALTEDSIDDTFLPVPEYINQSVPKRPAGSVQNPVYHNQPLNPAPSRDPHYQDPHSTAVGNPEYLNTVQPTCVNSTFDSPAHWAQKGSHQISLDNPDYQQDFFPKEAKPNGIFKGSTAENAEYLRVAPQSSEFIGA

| Compound | DC50 [1] [nM] | Dmax [1] [%] | DC50 [2] [nM] | Dmax (%) [2] [%] |
| --- | --- | --- | --- | --- |
| Cc1cc2cc(n1)-c1cnn(C)c1OCCC[C@@H](C)CN1/C(=N/C2=O)Nc2ccc(C(=O)N(C)[C@@H]3CCN(CCc4cc(F)c([C@H]5CCC(=O)NC5=O)c(F)c4)CC3(C)C)cc21 [Example 262, (R,E)-N—((R)-1-(4-((R)-2,6-dioxopiperidin-3-yl)-3,5-difluorophenethyl)-3,3-dimethylpiperidin-4-yl)-N,1^1,2^6,7-tetramethyl-3-oxo-5^2,5^3-dihydro-1^1H,5^1H-11-oxa-4-aza-5(2,1)-benzo[d]imidazola-2(2,4)-pyridina-1(4,5)-pyrazolacycloundecaphane-5^6-carboxamide] | 0.543 | 84.2 | 0.474 | 76.44 |
| Cc1cc2cc(n1)-c1cnn(C)c1OCCC[C@@H](C)CN1/C(=N/C2=O)Nc2ccc(CN(C)[C@H]3CCCN(C(=O)[C@@H]4CCN(c5cc(F)c([C@H]6CCC(=O)NC6=O)c(F)c5)C4)C3)cc21 [Example 319, (R)-3-(2,6-difluoro-4-((R)-3-((S)-3-(methyl(((R,E)-1^1,2^6,7-trimethyl-3-oxo-5^2,5^3-dihydro-1^1H,5′ H-11-oxa-4-aza-5(2,1)-benzo[d]imidazola-2(2,4)-pyridina-1(4,5)-pyrazolacycloundecaphane-5^6-yl)methyl)amino)piperidine-1-carbonyl)pyrrolidin-1-yl)phenyl)piperidine-2,6-dione] | 1.26 | 83.4 | 0.643 | 74.25 |
| Cc1cc2cc(n1)-c1c(C)nn(C)c1OCCC[C@@H](C)CN1/C(=N/C2=O)Nc2ccc(C(=O)N(C)C3CCN(CCc4cc(F)c([C@H]5CCC(=O)NC5=O)c(F)c4)CC3)cc21 [Example 233, (R,E)-N-(1-(4-((R)-2,6-dioxopiperidin-3-yl)-3,5-difluorophenethyl)piperidin-4-yl)-N,1^1,1^3,2^6,7-penta methyl-3-oxo-5^2,5^3-dihydro-1^1H,5^1H-11-oxa-4-aza-5(2,1)-benzo[d]imidazola-2(2,4)-pyridina-1(4,5)-pyrazolacycloundecaphane-5^6-carboxamide] | 1.05 | 91.2 | 0.806 | 86.73 |
| Cc1cc2cc(n1)-c1cnn(C)c1OCCC[C@@H](C)CN1/C(=N/C2=O)Nc2ccc(C(=O)N(C)C3CCN(CCc4cccc5c4n(C)c(=O)n5C4CCC(=O)NC4=O)CC3)cc21 (stereo partly drawn) [Example 314, (7R,E)-N-(1-(2-(1-(2,6-dioxopiperidin-3-yl)-3-methyl-2-oxo-2,3-dihydro-1H-benzo[d]imidazol-4-yl)ethyl)piperidin-4-yl)-N,1^1,2^6,7-tetramethyl-3-oxo-5^2,5′-dihydro-1^1H,5^1H-11-oxa-4-aza-5(2,1)-benzo[d]imidazola-2(2,4)-pyridina-1(4,5)-pyrazolacycloundecaphane-5^6-carboxamide] | 2.59 | 75.3 | 3.37 | 50.86 |
| Cc1cc2cc(n1)-c1cnn(C)c1OCCC[C@@H](C)CN1/C(=N/C2=O)Nc2ccc(C(=O)N[C@H]3CCN(CCc4cc(F)c([C@H]5CCC(=O)NC5=O)c(F)c4)[C@@H](C)C3)cc21 [Example 270, (R,E)-N—((2S,4S)-1-(4-((R)-2,6-dioxopiperidin-3-yl)-3,5-difluorophenethyl)-2-methylpiperidin-4-yl)-1^1,2^6,7-trimethyl-3-oxo-5^2,5^3-dihydro-1^1H,5^1H-11-oxa-4-aza-5(2,1)-benzo[d]imidazola-2(2,4)-pyridina-1(4,5)-pyrazolacycloundecaphane-5^6-carboxamide] | 0.429 | 92.5 | 0.614 | 81.16 |
| Cc1cc2cc(n1)-c1cnn(C)c1OCCC[C@@H](C)CN1/C(=N/C2=O)Nc2ccc(C(=O)N(C)C3C[C@H]4CN(CCc5cc(F)c([C@H]6CCC(=O)NC6=O)c(F)c5)C[C@@H]4C3)cc21 [Example 293, (R,E)-N—((3aR,6aR)-2-(4-((R)-2,6-dioxopiperidin-3-yl)-3,5-difluorophenethyl)octahydrocyclopenta[c]pyrrol-5-yl)-N,1^1,2^6,7-tetramethyl-3-oxo-5^2,5^1-dihydro-1^1H,5^1H-11-oxa-4-aza-5(2,1)-benzo[d]imidazola-2(2,4)-pyridina-1(4,5)-pyrazolacycloundecaphane-5^6-carboxamide] | 1.56 | 86.3 | 0.997 | 75.49 |
| Cc1cc2cc(n1)-c1cnn(C)c1OCC[C@H]1C[C@@H]1CN1/C(=N/C2=O)Nc2ccc(N3CCN(C4CCN(c5cnc(C6CCC(=O)NC6=O)cc5C)CC4)CC3)cc21 (stereo partly drawn) [Example 463, 3-(5-(4-(4-((7'S,7^2R,E)-1^1,2^6-dimethyl-3-oxo-5^2,5^3-dihydro-1^1H,5^1H-10-oxa-4-aza-5(2,1)-benzo[d]imidazola-2(2,4)-pyridina-1(4,5)-pyrazola-7(1,2)-cyclopropanacyclodecaphane-5^6-yl)piperazin-1-yl)piperidin-1-yl)-4-methylpyridin-2-yl)piperidine-2,6-dione] | 0.624 | 91.8 | 0.604 | 90.22 |
| Cc1cc2cc(n1)-c1cnn(C)c1OCCC[C@@H](C)CN1/C(=N/C2=O)Nc2ccc(CN3CCN(C(=O)C4CCN(c5cc(F)c([C@H]6CCC(=O)NC6=O)c(F)c5)CC4)CC3)cc21 [Example 162, (R)-3-(2,6-difluoro-4-(4-(4-(((R,E)-1^1,2^6,7-trimethyl-3-oxo-5^2, 5^3-dihydro-1^1H,5^1H-11-oxa-4-aza-5(2,1)-benzo[d]imidazola-2(2,4)-pyridina-1(4,5)-pyrazolacycloundecaphane-5^6-yl)methyl)piperazine-1-carbonyl)piperidin-1-yl)phenyl)piperidine-2,6-dione] | 0.598 | 79.1 | 0.557 | 71.45 |
| Cc1cc2cc(n1)-c1cnn(C)c1OCCC[C@@H](C)CN1/C(=N/C2=O)Nc2ccc(C(=O)N(C)[C@@H]3CCN(CCNc4cc(F)c([C@H]5CCC(=O)NC5=O)c(F)c4)C[C@@H]3F)cc21 [Example 350, (R,E)-N—((3S,4R)-1-(2-((4-((R)-2,6-dioxopiperidin-3-yl)-3,5-difluorophenyl)amino)ethyl)-3-fluoropiperidin-4-yl)-N,1^1,2^6,7-tetramethyl-3-oxo-5^2,5^3-dihydro-1^1H,5^1H-11-oxa-4-aza-5(2,1)-benzo[d]imidazola-2(2,4)-pyridina-1(4,5)-pyrazolacycloundecaphane-5^6-carboxamide] | 0.614 | 90.4 | 0.662 | 86.74 |
| Cc1cc2cc(n1)-c1cnn(C)c1OCCC[C@@H](C)CN1/C(=N/C2=O)Nc2ccc(C(=O)N(C)[C@@H]3CCN(CCc4cc(F)c([C@H]5CCC(=O)NC5=O)c(F)c4)C[C@H]3O)cc21 [Example 243, (R,E)-N-((3R,4R)-1-(4-((R)-2,6-dioxopiperidin-3-yl)-3,5-difluorophenethyl)-3-hydroxypiperidin-4-yl)-N,1^1,2^6,7-tetramethyl-3-oxo-5^2,5^3-dihydro-1^1H,5^1H-11-oxa-4-aza-5(2,1)-benzo[d]imidazola-2(2,4) -pyridina-1(4,5)-pyrazolacycloundecaphane-5^6-carboxamide] | 0.677 | 92.1 | 2.9 | 86.39 |
| Cc1cc2cc(n1)-c1cnn(C)c1OCCC[C@@H](C)CN1/C(=N/C2=O)Nc2ccc(C(=O)N(C)C3CCN(CCC4CN(c5cc(F)c([C@H]6CCC(=O)NC6=O)c(F)c5)C4)CC3)cc21 [Example 285, (R,E)-N-(1-(2-(1-(4-((R)-2,6-dioxopiperidin-3-yl)-3,5-difluorophenyl)azetidin-3-yl)ethyl)piperidin-4-yl)-N,1^1,2^6,7-tetramethyl-3-oxo-5^2,5^3-dihydro-1^1H,5^1H-11-oxa-4-aza-5(2,1)-benzo[d]imidazola-2(2,4)-pyridina-1(4,5)-pyrazolacycloundecaphane-5^6-carboxamide] | 0.651 | 89.8 | 0.667 | 77.98 |
| Cc1cc2cc(n1)-c1cnn(C)c1OCCC[C@H](C)CN1/C(=N/C2=O)Nc2c(C)cc(CN3CCN(C(=O)C4CN(c5cc(F)c([C@H]6CCC(=O)NC6=O)c(F)c5)C4)CC3)cc21 [Example 154, (R)-3-(2,6-difluoro-4-(3-(4-(((S,E)-11,26,54,7-tetramethyl-3-oxo-5^2,5^1-dihydro-1^1H,5^1H-11-oxa-4-aza-5(2,1)-benzo[d]imidazola-2(2,4)-pyridina-1(4,5)-pyrazolacycloundecaphane-5^6-yl)methyl)piperazine-1-carbonyl)azetidin-1-yl)phenyl)piperidine-2,6-dione] | 0.998 | 79.4 | 0.994 | 78.94 |
| Cc1cc2cc(n1)-c1cnn(C)c1OCCC[C@@H](C)CN1/C(=N/C2=O)Nc2ccc(C(=O)N(C3CC3)C3CCN(CCc4cc(F)c([C@H]5CCC(=O)NC5=O)c(F)c4)CC3)cc21 [Example 239, (R,E)-N-cyclopropyl-N-(1-(4-((R)-2,6-dioxopiperidin-3-yl)-3,5-difluorophenethyl)piperidin-4-yl)-1^1, 2^6,7-trimethyl-3-oxo-5^2,5^3-dihydro-1^1H,5^1H-11-oxa-4-aza-5(2,1)-benzo[d]imidazola-2(2,4)-pyridina-1(4,5)-pyrazolacycloundecaphane-5^6-carboxamide] | 0.604 | 87.9 | 0.205 | 83.87 |
